Results as given in ChEMBL document CHEMBL6087454, “Identification of Novel Organo-Se BTSA-Based Derivatives as Potent, Reversible, and Selective PPARγ Covalent Modulators for Antidiabetic Drug Discovery” (J Med Chem, 2025).
Active and inactive are the calls of the source.

Key:
[1] = system: Mus musculus; assay: Antidiabetic activity in male db/db mouse model assessed as increase in Glut4 protein abundance in white adipose tissue at 2.5 to 10 mg/kg/day, ip administered for 4 weeks by Western blotting analysis; assay type: functional, organism-based; settings: dose 2.5-10 mg/kg/day
[2] = Toxicity in male db/db mouse model assessed as effect on heart morphology at 2.5 to 10 mg/kg/day, ip administered for 4 weeks; assay type: organism-based; settings: in vivo, 672 h, dose 2.5-10 mg/kg/day
[3] = system: 3T3-L1; assay: Inhibition of adipogenesis in mouse 3T3-L1 cells assessed as downregulation of CD36 gene expression at 1 uM measured after 48 hrs by RT-qPCR analysis; assay type: functional, cell-based
[4] = Toxicity in male db/db mouse model assessed as effect on heart weight at 2.5 to 10 mg/kg/day, ip administered for 4 weeks; assay type: organism-based; settings: in vivo, 672 h, dose 2.5-10 mg/kg/day
[5] = system: Mus musculus; assay: Antidiabetic activity in male db/db mouse model assessed as increase in Glut4 protein abundance in liver at 2.5 to 10 mg/kg/day, ip administered for 4 weeks by Western blotting analysis; assay type: functional, organism-based; settings: dose 2.5-10 mg/kg/day
[6] = system: Mus musculus; assay: Antidiabetic activity in male db/db mouse model assessed as downregulation of FASN gene expression in liver at 2.5 to 10 mg/kg/day, ip administered for 4 weeks by RT-qPCR analysis; assay type: functional, organism-based; settings: dose 2.5-10 mg/kg/day
[7] = system: Mus musculus; assay: Antidiabetic activity in male db/db mouse model assessed as downregulation of PTP1B gene expression in liver at 2.5 to 10 mg/kg/day, ip administered for 4 weeks by RT-qPCR analysis; assay type: functional, organism-based; settings: dose 2.5-10 mg/kg/day
[8] = system: Mus musculus; assay: Effect on pRb protein expression in male db/db mouse white adipose tissue at 2.5 to 10 mg/kg/day, ip administered for 4 weeks by Western blotting analysis; assay type: functional, organism-based; settings: dose 2.5-10 mg/kg/day
[9] = system: Mus musculus; assay: Antidiabetic activity in male db/db mouse model assessed as downregulation of C/EBPalpha gene expression in liver at 2.5 to 10 mg/kg/day, ip administered for 4 weeks by RT-qPCR analysis; assay type: functional, organism-based; settings: dose 2.5-10 mg/kg/day
[10] = system: Mus musculus; assay: In vivo inhibition of Erk/Cdk5-mediated PPAR-gamma phosphorylation at Ser273 residue in male db/db mouse model assessed as decrease in phosphorylated-MEK expression in white adipose tissue at 2.5 to 10 mg/kg/day, ip administered for 4 weeks by Western blotting analysis; assay type: functional, organism-based; settings: dose 2.5-10 mg/kg/day
[11] = system: Mus musculus; assay: Antidiabetic activity in male db/db mouse model assessed as reduction in fasting blood glucose level administered intraperitoneally for 4 weeks; assay type: functional, organism-based; settings: dose 2.5-10 mg/kg/day, route ip
[12] = system: Mus musculus; assay: Downregulation of PPAR-gamma protein expression in male db/db mouse liver at 2.5 to 10 mg/kg/day, ip administered for 4 weeks by Western blotting analysis; assay type: functional, organism-based; settings: dose 2.5-10 mg/kg/day
[13] = system: Mus musculus; assay: Antidiabetic activity in male db/db mouse model assessed as increase in ANGPTL4 protein abundance in liver at 2.5 to 10 mg/kg/day, ip administered for 4 weeks by Western blotting analysis; assay type: functional, organism-based; settings: dose 2.5-10 mg/kg/day
[14] = system: Mus musculus; assay: Antidiabetic activity in male db/db mouse model assessed as increase in ADIPOQ protein abundance in white adipose tissue at 2.5 to 10 mg/kg/day, ip administered for 4 weeks by Western blotting analysis; assay type: functional, organism-based; settings: dose 2.5-10 mg/kg/day
[15] = system: Mus musculus; assay: Antidiabetic activity in male db/db mouse model assessed as upregulation of adiponectin gene expression in white adipose tissue at 2.5 to 10 mg/kg/day, ip administered for 4 weeks by RT-qPCR analysis; assay type: functional, organism-based; settings: dose 2.5-10 mg/kg/day
[16] = system: Mus musculus; assay: Antidiabetic activity in male db/db mouse model assessed as downregulation of aP2 gene expression in white adipose tissue at 2.5 to 10 mg/kg/day, ip administered for 4 weeks by RT-qPCR analysis; assay type: functional, organism-based; settings: dose 2.5-10 mg/kg/day
[17] = system: Mus musculus; assay: Antidiabetic activity in male db/db mouse model assessed as upregulation of Glut4 gene expression in liver at 2.5 to 10 mg/kg/day, ip administered for 4 weeks by RT-qPCR analysis; assay type: functional, organism-based; settings: dose 2.5-10 mg/kg/day
[18] = system: Mus musculus; assay: Antidiabetic activity in male db/db mouse model assessed as increase in ANGPTL4 protein abundance in white adipose tissue at 2.5 to 10 mg/kg/day, ip administered for 4 weeks by Western blotting analysis; assay type: functional, organism-based; settings: dose 2.5-10 mg/kg/day
[19] = system: Mus musculus; assay: Antidiabetic activity in male db/db mouse model assessed as downregulation of aP2 gene expression in liver at 2.5 to 10 mg/kg/day, ip administered for 4 weeks by RT-qPCR analysis; assay type: functional, organism-based; settings: dose 2.5-10 mg/kg/day
[20] = Toxicity in male db/db mouse model assessed as increase in white adipocytes size at 2.5 to 10 mg/kg/day, ip administered for 4 weeks by H and E staining based analysis; assay type: organism-based; settings: in vivo, 672 h, dose 2.5-10 mg/kg/day
[21] = biological target: T1, Peroxisome proliferator-activated receptor gamma (Homo sapiens) (UniProt P37231); assay: Covalent binding affinity to recombinant PPAR-gamma ligand binding domain (unknown origin) at Cys285 residue at 0.4 uM incubated for 30 mins by rhodamine-maleimide staining based SDS-PAGE analysis; settings: filed as partial agonist
T1 sequence (whole entry): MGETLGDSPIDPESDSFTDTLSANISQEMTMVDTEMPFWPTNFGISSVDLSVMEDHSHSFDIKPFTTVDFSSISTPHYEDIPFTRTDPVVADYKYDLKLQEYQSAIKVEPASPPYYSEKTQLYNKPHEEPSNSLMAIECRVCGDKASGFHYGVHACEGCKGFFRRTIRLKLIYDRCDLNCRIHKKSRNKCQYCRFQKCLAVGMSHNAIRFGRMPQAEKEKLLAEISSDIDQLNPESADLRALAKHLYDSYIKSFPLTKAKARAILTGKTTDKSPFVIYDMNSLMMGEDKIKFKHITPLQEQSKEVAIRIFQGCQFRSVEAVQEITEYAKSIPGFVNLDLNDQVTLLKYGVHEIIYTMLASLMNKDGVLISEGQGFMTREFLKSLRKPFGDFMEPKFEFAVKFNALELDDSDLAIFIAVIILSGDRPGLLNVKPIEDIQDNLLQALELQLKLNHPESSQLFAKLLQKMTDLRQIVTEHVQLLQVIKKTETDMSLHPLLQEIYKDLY

[22] = system: Mus musculus; assay: Effect on cdk5 protein expression in male db/db mouse white adipose tissue at 2.5 to 10 mg/kg/day, ip administered for 4 weeks by Western blotting analysis; assay type: functional, organism-based; settings: dose 2.5-10 mg/kg/day
[23] = system: Mus musculus; assay: Antidiabetic activity in male db/db mouse model assessed as upregulation of adiponectin gene expression in liver at 2.5 to 10 mg/kg/day, ip administered for 4 weeks by RT-qPCR analysis; assay type: functional, organism-based; settings: dose 2.5-10 mg/kg/day
[24] = system: Mus musculus; assay: Antidiabetic activity in male db/db mouse model assessed as downregulation of SOCS3 gene expression in liver at 2.5 to 10 mg/kg/day, ip administered for 4 weeks by RT-qPCR analysis; assay type: functional, organism-based; settings: dose 2.5-10 mg/kg/day
[25] = system: Mus musculus; assay: Antidiabetic activity in male db/db mouse model assessed as downregulation of CD36 gene expression in white adipose tissue at 2.5 to 10 mg/kg/day, ip administered for 4 weeks by RT-qPCR analysis; assay type: functional, organism-based; settings: dose 2.5-10 mg/kg/day
[26] = system: Mus musculus; assay: Antidiabetic activity in male db/db mouse model assessed as downregulation of SOCS3 gene expression in white adipose tissue at 2.5 to 10 mg/kg/day, ip administered for 4 weeks by RT-qPCR analysis; assay type: functional, organism-based; settings: dose 2.5-10 mg/kg/day

Cc1ccc(S(=O)(=O)Oc2ccc(S3(=O)=N[Se]c4cc(OS(=O)(=O)c5ccc(C)cc5)ccc43)cc2)cc1 (stereo unspecified)
inactive: Activity [8] | Activity [12] | Activity [22]
Non-toxic: Activity [2] | Activity [4] | Activity [20]
active: Activity [1] | inhibition [3] | Activity [5] | Activity [6] | Activity [7] | Activity [9] | inhibition [10] | Activity [11] Dose-dependent-effect | Activity [13] | Activity [14] | Activity [15] | Activity [16] | Activity [17] | Activity [18] | Activity [19] | Activity [21] | Activity [23] | Activity [24] | Activity [25] | Activity [26]
